Blank lines part the entries; values can stand above or below the compound they belong to.
Columns and labels:
[1] = target: T1, SMYD3 (Homo sapiens (Human), UniProt Q9H7B4); experiment: SMYD3 biochemical assay (SPA, 3H-SAM methylation of MEKK2 protein substrate)
In short: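 Methylation of N-terminally GST-tagged MEKK2 by untagged full-length human SMYD3, using 3H-SAM, in pH 8.0 Tris buffer with TCEP, BSG and Tween 20; enzyme and compound sat 30 min at room temperature before substrate addition. Stopped with 100 uM (final) cold SAM; incorporation read by scintillation proximity as dpm/cpm.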

[2] = target: T1, SMYD3; experiment: SMYD3 cell assay (Trimethyl-MEKK2 In-Cell Western in 293T/17 cells); type: cell-based
In short: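 In-Cell Western readout: methanol-fixed cells stained for trimethyl-MEKK2 and flag tag, ratio per well normalized to DMSO and background controls.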

[3] = Table 2A, read-out: SMYD3 Biochem IC50
[4] = Table 2A, read-out: SMYD3 Cell IC50
[5] = average of n = 1 to n = 50, read-out: SMYD3 Biochem IC50
[6] = average of n = 1 to n = 50, read-out: SMYD3 Cell IC50
[7] = read-out: SMYD3 Biochem IC50 (μM)*
[8] = 293T/17 cells, read-out: SMYD3 Cell IC50 (μM)*

T1 sequence (Q9H7B4 whole entry): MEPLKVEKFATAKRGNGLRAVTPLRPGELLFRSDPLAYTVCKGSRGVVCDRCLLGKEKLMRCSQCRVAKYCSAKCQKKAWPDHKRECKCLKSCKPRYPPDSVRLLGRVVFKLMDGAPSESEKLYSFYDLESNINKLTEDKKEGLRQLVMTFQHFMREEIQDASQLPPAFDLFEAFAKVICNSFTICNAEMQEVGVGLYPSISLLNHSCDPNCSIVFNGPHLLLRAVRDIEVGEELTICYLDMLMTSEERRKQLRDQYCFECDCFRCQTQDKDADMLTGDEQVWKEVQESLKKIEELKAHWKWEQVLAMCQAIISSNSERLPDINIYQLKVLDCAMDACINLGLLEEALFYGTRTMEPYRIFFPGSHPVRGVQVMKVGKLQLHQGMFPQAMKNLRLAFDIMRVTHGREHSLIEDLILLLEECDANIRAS

Compound: CC(C)(NC1CCN(S(=O)(=O)N2[C@@H]3CC[C@H]2C[C@@H](NC(=O)c2cc(C4CC4)on2)C3)CC1)c1ccccc1 [compound 978, 5-cyclopropyl-N-((1R,3r,5S)-8-((4-((2-phenylpropan-2-yl)amino)piperidin-1-yl)sulfonyl)-8-azabicyclo[3.2.1]octan-3-yl)isoxazole-3-carboxamide]
IC50 ([1]; IC50 values are an average of n = 1 to n = 50, read-out: SMYD3 Biochem IC50*): 0.117 µM
IC50 ([2]; IC50 values are an average of n = 1 to n = 50, read-out: SMYD3 Cell IC50*): 1.33 µM

Compound: NC1CC2(C1)CN(S(=O)(=O)N1[C@@H]3CC[C@H]1C[C@@H](NC(=O)c1cc(C4CC4)on1)C3)C2 [compound 552, N-((1R,3r,5S)-8-((6-amino-2-azaspiro[3.3]heptan-2-yl)sulfonyl)-8-azabicyclo[3.2.1]octan-3-yl)-5-cyclopropylisoxazole-3-carboxamide]
IC50 [1, 3]: 0.0031 µM
IC50 [2, 4]: 0.0492 µM

Compound: CN(C)[C@H]1CC[C@@H](S(=O)(=O)N2[C@@H]3CC[C@H]2C[C@@H](NC(=O)c2cc(C4CC4)on2)C3)CC1 [compound 771, 5-cyclopropyl-N-((1R,3R,5S)-8-(((1s,4S)-4-(dimethylamino)cyclohexyl)sulfonyl)-8-azabicyclo[3.2.1]octan-3-yl)isoxazole-3-carboxamide]
IC50 ([1]; read-out: SMYD3 Biochem IC50*): 0.00094 µM
IC50 ([2]; read-out: SMYD3 Cell IC50*): 0.0255 µM

Compound: C[C@H]1C[C@@H](NC(=O)c2cc(C3CC3)on2)CCN1S(=O)(=O)N1CCC(N)CC1 [Cpd. No. 529, N-((2S,4S)-1-(4-aminopiperidin-1-ylsulfonyl)-2-methylpiperidin-4-yl)-5-cyclopropylisoxazole-3-carboxamide trifluoroacetic acid]
IC50 [1, 3]: 0.0008 µM
IC50 [2, 4]: 0.0152 µM

Compound: N[C@H]1CC[C@H](C(=O)N2CC[C@H](NC(=O)c3cc(C4CC4)on3)C[C@@H]2Cc2ccccc2)CC1 [compound 310, N-((2S,4S)-1-((1r,4S)-4-aminocyclohexane-1-carbonyl)-2-benzylpiperidin-4-yl)-5-cyclopropylisoxazole-3-carboxamide]
IC50 [1, 7]: 0.733 µM
IC50 [2, 8]: 8.1 µM

Compound: O=C(N[C@H]1C[C@H]2CC[C@@H](C1)N2S(=O)(=O)N1CC2CCC1CN2)c1cc(C2CC2)on1 [compound 855, N-((1R,3r,5S)-8-((2,5-diazabicyclo[2.2.2]octan-2-yl)sulfonyl)-8-azabicyclo[3.2.1]octan-3-yl)-5-cyclopropylisoxazole-3-carboxamide]
IC50 ([1]; read-out: SMYD3 Biochem IC50*): 0.00706 µM
IC50 ([2]; read-out: SMYD3 Cell IC50*): 0.0687 µM

Compound: C[C@H]1C[C@@H](NC(=O)c2cc(C3CC3)on2)CCN1S(=O)(=O)c1ccc(C(C)(C)N)cc1 [Cpd. No. 541, N-((2S,4S)-1-(4-(2-aminopropan-2-yl)phenylsulfonyl)-2-methylpiperidin-4-yl)-5-cyclopropylisoxazole-3-carboxamide]
IC50 [1, 3]: 0.0014 µM
IC50 [2, 4]: 0.0259 µM

Compound: CCC1CN(C)CCN1S(=O)(=O)N1[C@@H]2CC[C@H]1C[C@@H](NC(=O)c1cc(C3CC3)on1)C2 (stereo partly drawn) [compound 963, 5-cyclopropyl-N-((1R,3r,5S)-8-((2-ethyl-4-methylpiperazin-1-yl)sulfonyl)-8-azabicyclo[3.2.1]octan-3-yl)isoxazole-3-carboxamide]
IC50 ([1]; read-out: SMYD3 Biochem IC50*): 0.0829 µM
IC50 ([2]; read-out: SMYD3 Cell IC50*): 0.69 µM

Compound: CC1CN(S(=O)(=O)N2[C@@H]3CC[C@H]2C[C@@H](NC(=O)c2cc(C4CC4)on2)C3)CCC1N (stereo partly drawn) [compound 831, N-((1R,3r,5S)-8-((4-amino-3-methylpiperidin-1-yl)sulfonyl)-8-azabicyclo[3.2.1]octan-3-yl)-5-cyclopropylisoxazole-3-carboxamide]
IC50 ([1]; read-out: SMYD3 Biochem IC50*): 0.00436 µM
IC50 ([2]; read-out: SMYD3 Cell IC50*): 0.0851 µM

Compound: C[C@H]1C[C@@H](NC(=O)c2cc(C3CC3)on2)CCN1S(=O)(=O)CC1CCN(CCO)CC1 [compound 538, 5-cyclopropyl-N-((2S,4S)-1-(((1-(2-hydroxyethyl)piperidin-4-yl)methyl)sulfonyl)-2-methylpiperidin-4-yl)isoxazole-3-carboxamide]
IC50 [1, 3]: 0.0013 µM
IC50 [2, 4]: 0.0294 µM

Compound: C[C@H]1C[C@@H](NC(=O)c2cc(C3CC3)on2)CCN1C(=O)CC(CN)Cc1ccccc1 (stereo partly drawn) [compound 269, N-((2S,4S)-1-(4-amino-3-benzylbutanoyl)-2-methylpiperidin-4-yl)-5-cyclopropylisoxazole-3-carboxamide]
IC50 [1, 7]: > 10 µM
IC50 [2, 8]: > 40 µM

Compound: CCCCS(=O)(=O)N1CC[C@H](NC(=O)c2cc(C3CC3)on2)C[C@@H]1C [compound 316, N-((2S,4S)-1-(butylsulfonyl)-2-methylpiperidin-4-yl)-5-cyclopropylisoxazole-3-carboxamide]
IC50 [1, 7]: 0.237 µM
IC50 [2, 8]: 0.782 µM

The next lines start with the values.

IC50 [1, 3]: 0.0116 µM
IC50 [2, 4]: 0.106 µM
Compound: C[C@H]1C[C@@H](NC(=O)c2cc(C3CC3)on2)CCN1S(=O)(=O)N1C[C@@H]2C[C@H]1CN2C [compound 592, 5-cyclopropyl-N-((2S,4S)-2-methyl-1-(((1S,4S)-5-methyl-2,5-diazabicyclo[2.2.1]heptan-2-yl)sulfonyl)piperidin-4-yl)isoxazole-3-carboxamide]

IC50 ([1]; read-out: SMYD3 Biochem IC50*): 0.00765 µM
IC50 ([2]; read-out: SMYD3 Cell IC50*): 0.102 µM
Compound: COCCNC1CCN(S(=O)(=O)N2CC[C@H](NC(=O)c3cc(C4CC4)on3)C[C@@H]2C)CC1 [compound 861, 5-cyclopropyl-N-((2S,4S)-1-((4-((2-methoxyethyl)amino)piperidin-1-yl)sulfonyl)-2-methylpiperidin-4-yl)isoxazole-3-carboxamide]

IC50 [1, 5]: 0.056 µM
IC50 [2, 6]: 0.34 µM
Compound: COCCN1CCC(CS(=O)(=O)N2CC[C@@H](NC(=O)c3cc(C4CC4)on3)[C@@H](C)C2)CC1 [compound 654, 5-cyclopropyl-N-((3S,4R)-1-(((1-(2-methoxyethyl)piperidin-4-yl)methyl)sulfonyl)-3-methylpiperidin-4-yl)isoxazole-3-carboxamide]

IC50 [1, 5]: 0.0265 µM
IC50 [2, 6]: 0.243 µM
Compound: C[C@H]1CN(S(=O)(=O)c2ccc(C(C)(C)N)cc2)CC[C@H]1NC(=O)c1cc(C2CC2)on1 [compound 627, N-((3S,4R)-1-((4-(2-aminopropan-2-yl)phenyl)sulfonyl)-3-methylpiperidin-4-yl)-5-cyclopropylisoxazole-3-carboxamide]

IC50 [1, 5]: 0.124 µM
IC50 [2, 6]: 0.254 µM
Compound: C[C@@H]1CN(S(=O)(=O)N2CCN(C)CC2)[C@H](C)C[C@@H]1NC(=O)c1cc(C2CC2)on1 [compound 685, 5-cyclopropyl-N-((2R,4S,5R)-2,5-dimethyl-1-((4-methylpiperazin-1-yl)sulfonyl)piperidin-4-yl)isoxazole-3-carboxamide]

IC50 [1, 5]: 0.322 µM
IC50 [2, 6]: 2.43 µM
Compound: COCCN1CCC(CS(=O)(=O)N2CC[C@H](NC(=O)c3cc(C4CC4)on3)C[C@@H]2Cc2ccccc2)CC1 [compound 720, N-((2S,4S)-2-benzyl-1-(((1-(2-methoxyethyl)piperidin-4-yl)methyl)sulfonyl)piperidin-4-yl)-5-cyclopropylisoxazole-3-carboxamide]

IC50 [1, 5]: 0.625 µM
IC50 [2, 6]: 3.47 µM
Compound: COCCCN1CCC(CS(=O)(=O)N2CC[C@H](NC(=O)c3cc(C4CC4)on3)C[C@@H]2Cc2ccccc2)CC1 [compound 750, N-((2S,4S)-2-benzyl-1-(((1-(3-methoxypropyl)piperidin-4-yl)methyl)sulfonyl)piperidin-4-yl)-5-cyclopropylisoxazole-3-carboxamide]

IC50 [1, 5]: 0.34 µM
IC50 [2, 6]: 3.07 µM
Compound: O=C(N[C@H]1CCN(S(=O)(=O)C2CCCNC2)[C@@H](Cc2ccccc2)C1)c1cc(C2CC2)on1 (stereo partly drawn) [compound 725, N-((2S,4S)-2-benzyl-1-(piperidin-3-ylsulfonyl)piperidin-4-yl)-5-cyclopropylisoxazole-3-carboxamide]

— US10577363B2, “Substituted piperidine compounds” (EPIZYME, INC., priority 2014, dated 2020)
